# Measured values: patent US10792289B2 (Horizon Orphan LLC, priority 2009, dated 2020)
# Key:
# [1] = tested on: P. aeruginosa; assay: Phase 2 study: P. aeruginosa density in sputum; type: in vivo, Pseudomonas aeruginosa; conditions: MITT; for Reduction in P. aeruginosa density in sputum: median Day 1 to Day 28
# Method: (§1) The following dosage regimens (as nebulizer loaded doses) were evaluated: 120 mg QD (daily); 240 mg QD (daily); and 240 mg BID (twice daily).
# (§2) Patients were assessed on Day 1, 7, 14, and 28, and then up to 28 days after completion of study drug, namely, Days 42 and 56. The end of the study was defined as the last visit of the last patient.
# Efficacy was evaluated by microbiologic assessment of sputum samples, time to need for anti-pseudomonal antimicrobials, the Cystic Fibrosis Questionaire-Revised (CFQ-R), and pulmonary function tests. […] Pair-wise comparisons between all the treatment arms were conducted as secondary analyses.
# [2] = tested on: stable CF patients; assay: Phase 2 study: safety, adverse events, discontinuation; type: in vivo, human
# Method: as §1, §2
# Adverse events and drug intolerability from Day 1 through the end of study were evaluated.
# [3] = combined 240 mg QD and BID, Baseline to Day 7
# [4] = combined 240 mg QD and BID, Baseline to Day 14
# [5] = combined 240 mg QD and BID, Baseline to Day 28
# [6] = combined 240 mg QD and BID, Day 1
# [7] = combined 240 mg QD and BID, Day 7
# [8] = combined 240 mg QD and BID, Day 14
# [9] = combined 240 mg QD and BID, Day 28
structure (smiles),measurement,setting,value
"C[C@H]1COc2c(N3CCN(C)CC3)c(F)cc3c(=O)c(C(=O)O)cn1c23 [Levofloxacin, levofloxacin]","Change in P. aeruginosa density, median","[1]; 120 mg QD, Baseline to Day 28",−0.20 log10 CTU/g sputum
same,"P. aeruginosa density, mean","[1]; 120 mg QD, Day 1",7.43 log10 CTU/g sputum
same,"P. aeruginosa density, median","[1]; 120 mg QD, Day 1",8.16 log10 CTU/g sputum
same,"P. aeruginosa density, mean","[1]; 120 mg QD, Day 7",6.68 log10 CTU/g sputum
same,"P. aeruginosa density, median","[1]; 120 mg QD, Day 7",6.98 log10 CTU/g sputum
same,"P. aeruginosa density, mean","[1]; 120 mg QD, Day 14",7.33 log10 CTU/g sputum
same,"P. aeruginosa density, median","[1]; 120 mg QD, Day 14",8.00 log10 CTU/g sputum
same,"P. aeruginosa density, mean","[1]; 120 mg QD, Day 28",7.26 log10 CTU/g sputum
same,"P. aeruginosa density, median","[1]; 120 mg QD, Day 28",7.78 log10 CTU/g sputum
same,Reduction in P. aeruginosa density in sputum,[1]; 120 mg QD,approximately 58%
same,"Change in P. aeruginosa density, mean","[1]; 240 mg BID, Baseline to Day 7",−0.97 log10 CTU/g sputum
same,"Change in P. aeruginosa density, median","[1]; 240 mg BID, Baseline to Day 7",−0.76 log10 CTU/g sputum
same,"Change in P. aeruginosa density, mean","[1]; 240 mg BID, Baseline to Day 14",−0.81 log10 CTU/g sputum
same,"Change in P. aeruginosa density, median","[1]; 240 mg BID, Baseline to Day 14",−0.79 log10 CTU/g sputum
same,"Change in P. aeruginosa density, mean","[1]; 240 mg BID, Baseline to Day 28",−0.66 log10 CTU/g sputum
same,"Change in P. aeruginosa density, median","[1]; 240 mg BID, Baseline to Day 28",−0.56 log10 CTU/g sputum
same,"P. aeruginosa density, mean","[1]; 240 mg BID, Day 1",7.17 log10 CTU/g sputum
same,"P. aeruginosa density, median","[1]; 240 mg BID, Day 1",7.90 log10 CTU/g sputum
same,"P. aeruginosa density, mean","[1]; 240 mg BID, Day 7",6.16 log10 CTU/g sputum
same,"P. aeruginosa density, median","[1]; 240 mg BID, Day 7",6.53 log10 CTU/g sputum
same,"P. aeruginosa density, mean","[1]; 240 mg BID, Day 14",6.32 log10 CTU/g sputum
same,"P. aeruginosa density, median","[1]; 240 mg BID, Day 14",6.70 log10 CTU/g sputum
same,"P. aeruginosa density, mean","[1]; 240 mg BID, Day 28",6.58 log10 CTU/g sputum
same,"P. aeruginosa density, median","[1]; 240 mg BID, Day 28",6.48 log10 CTU/g sputum
same,Reduction in P. aeruginosa density in sputum,[1]; 240 mg BID,approximately 96%
same,"Change in P. aeruginosa density, mean","[1]; 240 mg QD, Baseline to Day 7",−0.31 log10 CTU/g sputum
same,"Change in P. aeruginosa density, median","[1]; 240 mg QD, Baseline to Day 7",−0.18 log10 CTU/g sputum
same,"Change in P. aeruginosa density, mean","[1]; 240 mg QD, Baseline to Day 14",−0.44 log10 CTU/g sputum
same,"Change in P. aeruginosa density, median","[1]; 240 mg QD, Baseline to Day 14",−0.10 log10 CTU/g sputum
same,"Change in P. aeruginosa density, mean","[1]; 240 mg QD, Baseline to Day 28",−0.25 log10 CTU/g sputum
same,"Change in P. aeruginosa density, median","[1]; 240 mg QD, Baseline to Day 28",−0.39 log10 CTU/g sputum
same,"P. aeruginosa density, mean","[1]; 240 mg QD, Day 1",7.08 log10 CTU/g sputum
same,"P. aeruginosa density, median","[1]; 240 mg QD, Day 1",7.97 log10 CTU/g sputum
same,"P. aeruginosa density, mean","[1]; 240 mg QD, Day 7",6.79 log10 CTU/g sputum
same,"P. aeruginosa density, median","[1]; 240 mg QD, Day 7",6.95 log10 CTU/g sputum
same,"P. aeruginosa density, mean","[1]; 240 mg QD, Day 14",6.63 log10 CTU/g sputum
same,"P. aeruginosa density, median","[1]; 240 mg QD, Day 14",6.46 log10 CTU/g sputum
same,"P. aeruginosa density, mean","[1]; 240 mg QD, Day 28",6.82 log10 CTU/g sputum
same,"P. aeruginosa density, median","[1]; 240 mg QD, Day 28",7.38 log10 CTU/g sputum
same,Reduction in P. aeruginosa density in sputum,[1]; 240 mg QD,approximately 74%
same,"Largest difference in P. aeruginosa density, placebo vs levofloxacin",[1]; Day 7,1.44 log10 CFU/g sputum
same,"Largest difference in P. aeruginosa density, placebo vs levofloxacin",[1]; Day 14,1.39 log10 CFU/g sputum
same,"Largest difference in P. aeruginosa density, placebo vs levofloxacin",[1]; Day 28,1.78 log10 CFU/g sputum
same,"Change in P. aeruginosa density, mean",[1]; [3],−0.65 log10 CTU/g sputum
same,"Change in P. aeruginosa density, median",[1]; [3],−0.35 log10 CTU/g sputum
same,"Change in P. aeruginosa density, mean",[1]; [4],−0.63 log10 CTU/g sputum
same,"Change in P. aeruginosa density, median",[1]; [4],−0.40 log10 CTU/g sputum
same,"Change in P. aeruginosa density, mean",[1]; [5],−0.46 log10 CTU/g sputum
same,"Change in P. aeruginosa density, median",[1]; [5],−0.5 log10 CTU/g sputum
same,"P. aeruginosa density, mean",[1]; [6],7.12 log10 CTU/g sputum
same,"P. aeruginosa density, median",[1]; [6],7.91 log10 CTU/g sputum
same,"P. aeruginosa density, mean",[1]; [7],6.47 log10 CTU/g sputum
same,"P. aeruginosa density, median",[1]; [7],6.69 log10 CTU/g sputum
same,"P. aeruginosa density, mean",[1]; [8],6.48 log10 CTU/g sputum
same,"P. aeruginosa density, median",[1]; [8],6.61 log10 CTU/g sputum
same,"P. aeruginosa density, mean",[1]; [9],6.70 log10 CTU/g sputum
same,"P. aeruginosa density, median",[1]; [9],6.90 log10 CTU/g sputum
same,"Discontinuation from study, primary reason adverse event, patients (%)",[2]; 120 mg QD,1 (2.6%)
same,"Study drug discontinuation, adverse event, patients (%)",[2]; 120 mg QD,3 (7.9%)
same,"Study drug discontinuation, patients (%)",[2]; 120 mg QD,3 (7.9%)
same,"Discontinuation from study, primary reason adverse event, patients (%)",[2]; 240 mg BID,2 (5.1%)
same,"Study drug discontinuation, adverse event, patients (%)",[2]; 240 mg BID,2 (5.1%)
same,"Study drug discontinuation, patients (%)",[2]; 240 mg BID,2 (5.1%)
same,"Discontinuation from study, primary reason adverse event, patients (%)",[2]; 240 mg QD,1 (2.7%)
same,"Study drug discontinuation, adverse event, patients (%)",[2]; 240 mg QD,1 (2.7%)
same,"Study drug discontinuation, patients (%)",[2]; 240 mg QD,1 (2.7%)
same,Significant adverse events,[2]; Day 1 through the end of study,No significant adverse events were reported
